Values of other authors as cited in patent publication US6197304A, “Whitening cosmetics containing solvent-fractionated extracts of ramulus mori extract” (priority 1997, dated 2001).
“Also recorded” adds a separate entry of the source.

Legend:
[1] = system: skin; conditions: prior art
[2] = system: tyrosinase; conditions: prior art

Compound	skin irritation (in words) [1]	tyrosinase inhibition / whitening activity (in words) [2]
Oc1ccc(O)cc1 [Hydroquinone, hydroquinone]	irritates the skin strongly	
O=C1O[C@H]([C@@H](O)CO)C(O)=C1O [Ascorbic acid, ascorbic acid]		relatively low activity of inhibiting tyrosinase
O=c1cc(CO)occ1O [Comparative 3, kojic acid]		high activity; also recorded: relatively high whitening effect
